Results on 6 compounds are retold here after paper PMC6747274, “Multifunctional Peptides from Spanish Dry-Cured Pork Ham: Endothelial Responses and Molecular Modeling Studies” (International Journal of Molecular Sciences, 2019).

Several values for one entry are separate records, joined by “and”; a condition that tells them apart may be missing. Identical values can stand only once. Entries after “also recorded” stand apart in the source; their conditions may differ. Where no end group is shown, it is not given here.

Broadly, the IC50 is the point on the concentration scale where inhibition reaches its midpoint. Low readings indicate greater potency, high ones weaker potency.

Data set [1] concerns inflammatory markers (IL-6 and eNOS). Conditions: spontaneous hypertensive rats, DNA microarray; cited from earlier work. The source says:
In fact, multifunctional peptides interfere with more than one biological pathway, such as NO production, oxidative stress, and inflammation. […] Our interest in the use of an in vitro model of endothelial dysfunction was to further understand the reg ...

Data set [2] deals with ICAM-1 protein, EA.hy926 cells. Put plainly: Intracellular ICAM-1 protein by western blot. In kind it is cell-based, human. Conditions: 100 ng/mL TNF-α alone. The protocol: (§1) EA.hy926 were seeded in six-well plates at 0.25 × 10^6 cells/well in DMEM supplemented with 5% FBS. Cells were treated with 300 µM of each peptide for 16 h. Then, 100 ng/mL TNF-α or 300 µM H2O2 were added for an additional 6 h or 24 h, respectively.
Supplementary Material and Methods
1.1. Human ACE Inhibitio n Assa y
Before transfection, the endothelial ACE expressio n level was very low and the p roduct of the enzymatic reaction undete ctable, and so a recombinant construct e ncodi ng the Myc-Tag fused to the ACE ge ne was used. T o overexpress the ACE enzyme, EA.hy926 cel ls were seeded in 24-well plates at 80,000 cells/well and transiently transfec ted with a human Ace ORF mammali an expression plasmid (Sinobiological, Beijing, China) using trans-it X2 reagent ( Myrus®, Madi son, […]
Wisconsin, USA). […] The effi ciency of […]
transfecti on was checked by immunofluorescence. Briefly, 48 h post-transfection, cells were fixed with 4% paraformaldehyd e in culture medi um for 15 min at room temperatur e, blocked with 1% bo vine seru m albumin (BSA) in phosph ate buffer for 30 min followed by 0.2% sapo nin for 30 min to permeabil ize the membr ane. […]
The mRNA level s of the target genes (ICAM-1, VCAM-1, IL-6, eNOS, SOD, catal ase, NADPH, BAX) were quantified by RT-PCR using Se nsiFAST SYBER Hi-ROX Kit (Bioline, Taunton, USA) with StepOnePlus Real-Time PCR Sy stem (Appl ied Bi osystems, Foster City, CA, USA) using speci fi c and vali dated pri mers (Si gma-Al drich Chemical Co., Saint Louis, MO, USA).
The tetr azolium assay (MTT) was used to estimate the cel l viability in the presence of synthetic pepti des (up to 600 µM) and 300 µM H2O2. […] The formazan crystals formed in the intact cel ls were dissol ved in 200 µL dimethyl sulfoxide (DMSO) for 30 min and the absorbance was measured in a micro plate reader at 570 nm and 620 nm of reference. Results wer e calculated as cel l viability (%) = average optic density (OD) of wells/ave rage OD of control wells. […]

Data set [3] has as its system eNOS mRNA, EA.hy926 cells. Description: eNOS mRNA expression by RT-PCR in EA.hy926 cells. In kind it is cell-based, human. On the procedure:
(§2) EA.hy926 cells, the hybrid human umbilical vein endothelial cell line, were obtained from the American Type Culture Collection (ATCC® CRL2922™, Rockville, MD, USA). Cells were cultured in high glucose Dulbecco’s Modified Eagle’s Medium (DMEM), containing 10% heat-inactivated fetal bovine serum (FBS, Biowest, Riverside, CA, USA) and 50 U/mL of penicillin and 50 µg/mL streptomycin (Sigma Aldrich Chemical Co., Saint Louis, MO, USA). Cells were grown in 5% CO2 in a humidified air incubator at 37 °C. Subculture was performed when 90% confluence was reached.
as §1
(§3) Total RNA was extracted from EA.hy926 cells using 300 µL Trisure™ (Bioline, Taunton, MA, USA) reagent and Direct-zol™ RNA MiniPrep (Zymo Research Irvine, Irvine, CA, USA) according to the manufacturer’s protocol. Total RNA was reverse-transcribed into complementary DNA (Sensifast cDNATM Synthesis kit, Bioline, Taunton, MA, USA). The mRNA levels of the target genes were quantified by RT-PCR using SensiFAST SYBER Hi-ROX Kit (Bioline, Taunton, MA, USA) with StepOnePlus Real-Time PCR System (Applied Biosystems, Foster City, CA, USA). Briefly, 5 µL of 1:5 diluted cDNA was added to the qPCR reaction containing 10 μL 2X SensiFAST Mix and 400 nM of each primer in a total volume of 20 μL.
(§4) Specific and validated primers for human glyceraldehyde-3-phosphate dehydrogenase (GADPH), intercellular adhesion marker-1 (ICAM-1), vascular cell adhesion marker-1 (VCAM-1), endothelial nitric oxide synthase (eNOS), interleukin 6 (IL-6), catalase, SOD (Super Oxide Dismutase), NADPH (Nicotinamide Adenine Dinucleotide Phosphate oxidase) and Bax (proapoptosis regulator) genes were used (Sigma-Aldrich Chemical Co., Saint Louis, MO, USA). […]
(§5) The relative quantification of gene expression was determined by the comparative fold change […] method. […]

Data set [4] deals with VCAM-1 mRNA, EA.hy926 cells. Put plainly: VCAM-1 mRNA expression by RT-PCR in EA.hy926 cells. The following applies: 100 ng/mL TNF-α alone, 6 h; p < 0.05. In kind it is cell-based, human. On the procedure:
as §2, §1, §3, §4, §5

For data set [5], the system named is IL-6 mRNA, EA.hy926 cells. Description: IL-6 mRNA expression by RT-PCR in EA.hy926 cells. It counts as cell-based, human. On the procedure: as §2, §1
(§6) Total RNA was extracted from EA.hy926 cells using 300 µL Trisure™ (Bioline, Taunton, MA, USA) reagent and Direct-zol™ RNA MiniPrep (Zymo Research Irvine, Irvine, CA, USA) according to the manufacturer’s protocol. […] The mRNA levels of the target genes were quantified by RT-PCR using SensiFAST SYBER Hi-ROX Kit (Bioline, Taunton, MA, USA) with StepOnePlus Real-Time PCR System (Applied Biosystems, Foster City, CA, USA). […]
as §5

Data set [6] relates to ICAM-1 surface expression, EA.hy926 cells. Put plainly: ICAM-1 surface expression by flow cytometry (MFI). It counts as cell-based, human. On the procedure: as §2, §1
To measure adhesion molecule content in human endothelial cells by flow cytometry, the cell monolayer was detached and fixed before immunofluorescence labelling. The following antibodies were used per sample: 20 µL anti-ICAM-1/CD54-phycoerythrin (PE) (clone HA58, BD Biosciences, Franklin Lakes, NJ, USA) and 5 µL anti-VCAM-1/CD106-PerCP-Cy5.5 (clone 51–10C9; BD Biosciences, San Jose, CA, USA), according to the manufacturer’s protocol. Stained cells (10,000 events) were examined by flow cytometry (FACS Calibur, Becton Dickinson, Mountain View, CA, USA) in a simultaneous two-color analysis with FL2 (PE) and FL3 (PerCP-Cy5.5) channels. Markers were set according to the negative controls to quantify the percentage of positively stained cells. Mean Fluorescence Intensity (MFI) was calculated for each antigen (MFI of total stained cells-MFI of negative control cells).
On the technique in general: In flow cytometry, cells or beads pass a laser one at a time.

In data set [7] the test system is ICAM-1 mRNA, EA.hy926 cells. Description: ICAM-1 mRNA expression by RT-PCR in EA.hy926 cells. The following applies: 100 ng/mL TNF-α alone, 6 h; p < 0.05. In kind it is cell-based, human. The protocol:
as §2, §1, §6, §5

Data set [8] has as its system VCAM-1 surface expression, EA.hy926 cells. Put plainly: VCAM-1 surface expression by flow cytometry. In kind it is cell-based, human. The following applies: 100 ng/mL TNF-α alone. On the procedure:
as §2, §1
To measure adhesion molecule content in human endothelial cells by flow cytometry, the cell monolayer was detached and fixed before immunofluorescence labelling. […] Markers were set according to the negative controls to quantify the percentage of positively stained cells. Mean Fluorescence Intensity (MFI) was calculated for each antigen (MFI of total stained cells-MFI of negative control cells).

The next data set deals with human ACE (Homo sapiens, UniProt P12821). Description: Human ACE inhibition assay (lysate of ACE-transfected EA.hy926 cells, HHL substrate, HPLC).
Chain of human ACE (P12821 30-1306): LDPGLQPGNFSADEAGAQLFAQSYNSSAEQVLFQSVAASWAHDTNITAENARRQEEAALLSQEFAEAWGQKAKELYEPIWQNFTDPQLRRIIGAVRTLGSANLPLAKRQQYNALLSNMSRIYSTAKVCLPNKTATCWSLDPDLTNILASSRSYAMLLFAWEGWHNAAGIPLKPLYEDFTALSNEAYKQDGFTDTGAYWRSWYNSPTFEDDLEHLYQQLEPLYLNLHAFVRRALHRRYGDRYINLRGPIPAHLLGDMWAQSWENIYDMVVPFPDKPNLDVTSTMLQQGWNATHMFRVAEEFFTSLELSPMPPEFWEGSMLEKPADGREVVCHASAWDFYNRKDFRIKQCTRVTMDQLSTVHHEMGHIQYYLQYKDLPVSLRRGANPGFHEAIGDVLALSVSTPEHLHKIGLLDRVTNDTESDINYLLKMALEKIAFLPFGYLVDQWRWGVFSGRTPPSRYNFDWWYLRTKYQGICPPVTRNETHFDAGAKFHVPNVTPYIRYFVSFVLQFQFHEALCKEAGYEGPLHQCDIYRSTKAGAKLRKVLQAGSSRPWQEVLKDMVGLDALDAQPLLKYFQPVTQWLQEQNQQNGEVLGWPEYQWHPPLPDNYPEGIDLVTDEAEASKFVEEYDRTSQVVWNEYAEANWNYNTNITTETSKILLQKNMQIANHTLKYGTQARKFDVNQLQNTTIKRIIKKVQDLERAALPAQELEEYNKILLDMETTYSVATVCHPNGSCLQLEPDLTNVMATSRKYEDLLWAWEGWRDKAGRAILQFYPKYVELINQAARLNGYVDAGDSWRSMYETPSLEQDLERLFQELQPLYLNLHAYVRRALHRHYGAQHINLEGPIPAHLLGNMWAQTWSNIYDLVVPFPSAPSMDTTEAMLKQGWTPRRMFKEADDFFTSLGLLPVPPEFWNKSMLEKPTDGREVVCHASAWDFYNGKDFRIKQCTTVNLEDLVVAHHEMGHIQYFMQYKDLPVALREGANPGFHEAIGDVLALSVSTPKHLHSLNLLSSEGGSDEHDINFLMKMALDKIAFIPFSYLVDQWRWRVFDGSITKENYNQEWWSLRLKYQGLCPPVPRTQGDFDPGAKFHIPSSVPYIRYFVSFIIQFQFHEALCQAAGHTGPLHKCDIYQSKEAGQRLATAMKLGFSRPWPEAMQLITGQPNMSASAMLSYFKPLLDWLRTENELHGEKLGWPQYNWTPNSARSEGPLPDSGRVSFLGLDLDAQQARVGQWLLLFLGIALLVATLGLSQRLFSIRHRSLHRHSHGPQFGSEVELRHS
Data set [9] relates to protein carbonylation, EA.hy926 cells. Put plainly: Protein carbonylation (Oxyblot immunoblotting). It counts as cell-based, human. The following applies: 300 µM H2O2 alone, 30 min. On the procedure:
Protein carbonyl content is the most general and well-used biomarker of severe oxidative protein damage. Cel ls were treated with synthetic pepti des for 16 h before adding 300 µM H2O2 and leaving for additional 30 min. Protein carbonyl groups level s wer e determined by immuno blotting using the Oxyblot Protein Oxidation Detecti on Kit (Millipore Merck, Temecul a, CA, USA) according to the manufacturer’s protocol. PVDF membranes were blocked with 1% BSA in PBS–0.05% Tween 20 (v/v) (PBS-T) for 1 h at room temperature. The blots were incubated overnight at 20 °C with the polyclonal antibody. Subsequently, blots were washed (3–5 times) with PBS-T and incubated with goat anti-rabbit IgG/HRP c onjugate (1∶300 dilution in PBS/BSA) (Sigma-Al drich Chemical Co., Saint Louis, MO, USA) for 1 h at room temperature. […] In this condition, no signal was detected in the PVDF membr anes (data no t shown). The e mitted chemiluminescent signals wer e detected using a di gital imaging system (Im ageQuant LAS500, Thermo FisherScientific Inc., Rockford, IL, USA) after automatic exposition time. Quantitation of the densitometry plots for chemiluminescence detecti on was c arried out using ImageJ software for the analysis of 1D gels. Peaks were drawn from the di stinct western-blot bands, the area were calculated and normalized to co ntrol conditions.

Another data set relates to EA.hy926 cells. Description: Annexin V / propidium iodide apoptosis and necrosis by FACS. In kind it is cell-based, human. Conditions: 300 µM H2O2 alone, three independent experiments, mean ± SD. The protocol: as §1
ApoScreen Annexin V Apoptosis Kit-FITC (Southern Biotech, Birmingham, AL, USA) was used to detect the apoptosis rate. After the co-incubation of synthetic peptides and 300 µM H2O2, 0.4 × 10^6 cells were detached and washed in cold PBS, then resuspended in 100 µL Annexin V binding buffer and treated following the manufacturer’s protocol. Annexin V-fluorescein isothiocyanate (FITC) binding was assessed in FL1 channel simultaneously with propidium iodide (FL2 channel). This test discriminates among intact cells (FITC−/PI−), apoptotic cells (FITC+/PI−), and necrotic cells (FITC+/PI+). Assays were performed in triplicate (Table S1).

The next data set has as its system BAX mRNA, EA.hy926 cells. Put plainly: BAX mRNA expression by RT-PCR in oxidative conditions. In kind it is cell-based, human. The following applies: 300 µM H2O2 alone, 24 h; p = 0.02. The protocol: as §1
as §3, with “μL. […]” for “μL.”
as §5

The mark [10] stands for this setting: 100 ng/mL TNF-α alone, 6 h, p < 0.05.

For Val-Pro-Pro [VPP, milk-derived peptide], the “inflammatory markers (IL-6 and eNOS)” value in data set [1] is “decrease in inflammatory markers (IL-6 and eNOS)”.

In the case of TNF-α, in data set [2], the “expression of 82–85 kDa protein corresponding to ICAM-1 (western blot)” value is listed as “induced”. The “eNOS mRNA expression vs control” value in [3] (setting [10]) is “decreased”. Further, the “VCAM-1 mRNA expression vs control” value in [4] is reported as “increased”. Also, in data set [5] (setting [10]), the “IL-6 mRNA expression vs control” value is “increased”. Further, the “ICAM-1 MFI” value in data set [6] (100 ng/mL TNF-α alone, six independent experiments, mean ± SD, p = 0.0003 vs control (71.36 ± 8.31)) is recorded as 1271.91 ± 158.54. The “ICAM-1 MFI on cell surface (in words)” value in data set [6] (TNF-α alone vs control, p = 0.0003) is recorded as “increase”. The “ICAM-1 mRNA expression vs control” value in [7] is reported as “increased”. Moreover, the “VCAM-1 surface staining after TNF-α” value in [8] is listed as “undetected; also recorded: hardly detectable”.

Ile-Pro-Pro [IPP, milk-derived peptide]: the “inflammatory markers (IL-6 and eNOS)” value in [1] was “decrease in inflammatory markers (IL-6 and eNOS)”.

Take KPGRP [BP3]: the IC50 against human ACE was found to be 486 ± 43.5 µM.

Compound KPVAAP [BP1] came in with an IC50 at human ACE of 59.2 ± 3.8 µM.

Take `OO` [H2O2, reference compound]: the protein carbonylation level result in [9] is given as “significantly increased”. For the same compound, the “eNOS mRNA expression increase” value in data set [3] (300 µM H2O2 alone, 24 h, p = 0.01) stood at 3.3 fold. In addition, in data set [5] (300 µM H2O2 alone, 24 h, p = 0.001), the “IL-6 mRNA expression upregulation” value is 1.84 fold. For the same compound, the “Necrosis (AnV+/PI+), % cells” value with EA.hy926 cells (p = 0.01 vs control (1.45 ± 0.24)) is 18.56 ± 3.38% and 18%. The “Apoptosis (AnV+/PI-), % cells” value with EA.hy926 cells (p = 0.03 vs control (0.90 ± 0.36)) is 10.37 ± 1.33% and 10%. For the same compound, in the data set with BAX mRNA, EA.hy926 cells, the BAX expression increase is 1.5 fold.
